Publication PMC9102404, “Cationic N,N-Dimethylglycine Ester Prodrug of 2R-α-Tocotrienol Promotes Intestinal Absorption via Efficient Self-Micellization with Intrinsic Bile Acid Anion” (Molecules, 2022)
Where a name gives a salt, the structure may show the parent alone.

Legend:
[1] = Particle size distribution, z-potential and pH of aqueous solutions of α-T3DMG with or without TCA; format: physicochemical
Procedure: The fitting curves were obtained by the plateau model using GraphPad Prism to indicate a smoothing curve connecting each point. The z-average with PDI and the z-potential of the aqueous solution of α-[…] with or without TCA, as described in Section 4.7.1, were determined using a Zetasizer Nano ZS (MALVERN, Worcestershire, UK). Measurements were independently performed three times for each sample. The pH of the aqueous solution of α-[…] with or without TCA is described in Section 4.7.1. It was measured using a LAQUAtwin pH-11 pocket water quality meter (HORIBA, Ltd., Kyoto, Japan).

[2] = Water solubility; format: physicochemical; details: distilled water, 25 ± 1 °C, shaken 3 h
Procedure: The aqueous solubility of each ester was determined by adding 50 μmol of each compound to 1 mL of distilled water in amber test tubes and incubating the tubes at 25 ± 1 °C in a constant-temperature water bath. The test tubes were shaken for 3 h, and the suspensions were filtered using a membrane filter (MF-Millipore™ Membrane Filter, 0.45 µm pore size, Merck KGaA, Darmstadt, Germany). The filtered media, including α-T3DMG, was assayed using the liquid chromatography (LC)-MS/MS method described in Section 4.8.

[3] = Effect of eserine (esterase inhibitor) on ester hydrolysis in rat liver microsomes; format: in vitro ADME; details: eserine 0–2.0 mmol/L
Procedure: The effects of eserine on α-T3DMG hydrolysis in rat liver microsomes were also examined using similar methods, with 50 µL eserine aqueous solution instead of PBS, added to the mixtures with liver microsomes. Eserine was tested at 0–2.0 mmol/L.

[4] = Toxicity observation in the in vivo study; details: bile duct-ligated rats, 12.5 mg/kg α-T3 equivalent, gastrostomy
[5] = Distribution of α-T3DMG to n-octanol and water phases; format: physicochemical; details: increasing TCA molar ratio
Procedure: The fitting curves were obtained by the plateau model using GraphPad Prism to indicate a smoothing curve connecting each point. The prepared solutions described in Section 4.7.1 were combined with the same volume of n-octanol and then vortexed for 2 min. The solutions were then centrifuged at 20,600× g for 20 min. The upper layer (n-octanol) and the lower layer (water) were collected, diluted with ethanol, and subjected to LC-MS/MS, as described in Section 4.7.

[6] = Enzymatic hydrolysis of α-T3 esters in rat liver microsomes; format: in vitro ADME; details: rat liver microsome, pH 7.4, 37 °C, Michaelis–Menten fit; for Km: liver microsomes
Procedure: The hydrolysis of esters was analyzed at 37 °C in phosphate-buffered saline (PBS) containing commercially available rat liver microsomes (In Vitro Technologies, Inc., Baltimore, MD, USA). The microsomes (20 mg/mL) were adjusted to a protein concentration of 0.11 mg/mL and preincubated at 37 °C for 5 min before adding the esters.
Stock solutions of the esters were prepared in a 5% methanol aqueous solution. Enzymatic reactions were initiated by adding 50 µL ester stock solution (final concentration 50–800 μmol/L) and 50 μL PBS to 900 µL preheated reaction medium containing rat liver microsomes in amber test tubes. These reactions were incubated at 37 °C; and, at various times, 100 μL aliquots were removed and mixed with 350 µL ethanol. Samples were then vortexed for 2 min and centrifuged at 1750 g for 5 min. The aliquot was analyzed using the LC-MS/MS system described in Section 4.8. The initial hydrolytic rate (μmol/L α-T3 formed per min) was calculated from the initial slope of the plot of α-T3 concentration versus time.

[7] = Appearance of aqueous solutions of α-T3DMG with or without TCA; format: physicochemical
Procedure: A stock solution of α-T3DMG was prepared in milliQ and combined with different concentrations of taurocholic acid (TCA) aqueous solution to the final molar ratios (α-T3DMG/TCA = 1/0.1–4). The fitting curves were obtained by the plateau model using GraphPad Prism to indicate a smoothing curve connecting each point.

[8] = Stability in water; format: physicochemical
[9] = Enzymatic hydrolysis of α-T3 esters in rat plasma; format: in vitro ADME; details: pH 7.4, 37 °C, Michaelis–Menten fit
[10] = Plasma α-T3 pharmacokinetics after gastrostomy administration in bile duct-ligated rats; format: in vivo, rat
Procedure: The SD rats were fasted for 16 h, and they were provided drinking water ad libitum prior to the administration of the test compounds. The rats were administered three types of mixed anesthetic agents (medetomidine, midazolam, and butorphanol) under isoflurane anesthesia. To avoid the influence of intrinsic bile flow on intestinal absorption, a catheter was inserted into the bile ducts of the rats. The catheter was ligated with strings, and intrinsic bile flow was excluded. This animal model was referred to in an animal experimental book in Japanese, titled in English as, “An atlas of experimental animal technology” published in 1998; this method is very similar to that described in Figure 5 of Jaber et al..
Dosing solutions were prepared as follows: (i) 5.88 mmol/L α-T3DMG and 5.88 mmol/L TCA in water (α-T3DMG:TCA = 1:1), (ii) 5.88 mmol/L α-T3DMG and 11.76 mmol/L TCA in water (α-T3DMG:TCA = 1:2), and (iii) 5.88 mmol/L α-T3 and 11.76 mmol/L TCA in water (α-T3:TCA = 1:2). The α-T3 was dispersed in silica powder in ethanol, and the solvent was removed in vacuo prior to dispersion in water. The ligated rats were administered […] of α-T3DMG or α-T3 via gastrostomy. The doses were 12.5 mg/kg of body weight equivalent for α-T3.
Blood samples (200 µL) were collected from the external jugular vein under isoflurane anesthesia using heparinized syringes at 0.5, 1, 2, 3, 4, 6, 8, and 24 h. […]

[11] = 5.88 mmol/L α-T3DMG, TCA molar ratio 0
[12] = 5.88 mmol/L α-T3DMG, TCA molar ratio 0.3
[13] = 5.88 mmol/L α-T3DMG, TCA molar ratio 0.9
[14] = 5.88 mmol/L α-T3DMG, TCA molar ratio 1
[15] = 5.88 mmol/L α-T3DMG, TCA molar ratio 1.5
[16] = 5.88 mmol/L α-T3DMG, TCA molar ratio 3
[17] = 5.88 mmol/L α-T3DMG, TCA molar ratio 4
[18] = 23.52 mmol/L α-T3DMG, TCA molar ratio 0
[19] = 23.52 mmol/L α-T3DMG, TCA molar ratio 0.3
[20] = 23.52 mmol/L α-T3DMG, TCA molar ratio 1.5
[21] = 23.52 mmol/L α-T3DMG, TCA molar ratio 3
[22] = 23.52 mmol/L α-T3DMG, TCA molar ratio 4

In the case of `C[C@H](CCC(=O)NCCS(=O)(=O)O)[C@H]1CC[C@H]2[C@@H]3[C@H](O)C[C@@H]4C[C@H](O)CC[C@]4(C)[C@H]3C[C@H](O)[C@]12C` [TCA, taurocholic acid, reference compound], the z-potential ([1]; TCA without α-T3DMG in water, 23.52 mmol/L) is reported as −38.9 ± 1.9 mV.
For `CC(C)=CCC/C(C)=C/CC/C(C)=C/CC[C@]1(C)CCc2c(C)c(OC(=O)CN(C)C)c(C)c(C)c2O1` [α-T3DMG, 2R-α-Tocotrienyl N,N-dimethylglycinate hydrochloride], the solubility at 3 h [2] was greater than 50000 µM, the “hydrolysis in the presence of eserine” value [3] was “completely inhibited” and the “toxicity or abnormalities in rats and blood samples” value [4] was “no toxicity or abnormalities were observed”. For the same molecule, the “α-T3DMG levels in the n-octanol phase” value [5] was “reached a plateau at approximately equal molar ratios of α-T3DMG and TCA”, the Km [6] was 5720 µM and the Vmax [6] was 0.0001395 mol/L/min. The appearance in water ([7]; absence of TCA, all concentrations (2.94–23.52 mmol/L)) was “cloudy”, the “appearance of mixed solution” value ([7]; equal molar ratio of TCA versus 23.52 mmol/L α-T3DMG) was “white precipitation” and the appearance in water ([7]; presence of TCA, except 23.52 mmol/L α-T3DMG at α-T3DMG:TCA 1:0.9 and 1:1) was “transparent”. For the same molecule, the degradation in water ([8]; incubated at 5 and 20 °C for 28 days) was “did not exhibit any degradation”, the stability in water ([8]; room temperature (20 °C) for a month) was “stable” and the half-life ([8]; water, accelerated condition at 40 °C) was roughly 27 days. The Km [9] was 664 µM, the Vmax [9] was 8.138e-08 mol/L/min and the PDI [1, 11] was 0.542 ± 0.034. For the same molecule, the Z-Average [1, 11] was 282.0 ± 8.9 nm, the Z-Potential [1, 11] was 95.4 ± 2.5 mV and the pH [1, 11] was 3.0. For the same molecule, the PDI [1, 12] was 0.428 ± 0.014, the Z-Average [1, 12] was 12.6 ± 0.2 nm and the Z-Potential [1, 12] was 48.3 ± 7.5 mV. For the same molecule, the pH [1, 12] was 3.2, the PDI [1, 13] was 0.228 ± 0.039 and the Z-Average [1, 13] was 3.8 ± 1.1 nm. The Z-Potential [1, 13] was 19.1 ± 12.2 mV, the pH [1, 13] was 3.8 and the PDI [1, 14] was 0.203 ± 0.064. The Z-Average [1, 14] was 5.3 ± 3.5 nm, the Z-Potential [1, 14] was 8.70 ± 6.17 mV and the pH [1, 14] was 3.8. It also gave a PDI [1, 15] of 0.161 ± 0.045, a Z-Average [1, 15] of 3.1 ± 0.0 nm and a Z-Potential [1, 15] of −4.35 ± 1.99 mV. The pH [1, 15] was 4.1, the PDI [1, 16] was 0.217 ± 0.009 and the Z-Average [1, 16] was 4.3 ± 1.8 nm. It also gave a Z-Potential [1, 16] of −0.0299 ± 0.260 mV, a pH [1, 16] of 4.6 and a PDI [1, 17] of 0.466 ± 0.068. The Z-Potential [1, 17] was −22.1 ± 3.37 mV, the pH [1, 17] was 4.7 and the Z-Average ([1]; 5.88 mmol/L α-T3DMG, TCA molar ratio 4, ambiguous data (footnote a)) was 163.7 ± 84.5 ^a nm. The PDI [1, 18] was 0.490 ± 0.020, the Z-Average [1, 18] was 307.8 ± 8.6 nm and the pH [1, 18] was 2.7. For the same molecule, the PDI [1, 19] was 0.336 ± 0.026, the Z-Average [1, 19] was 6.6 ± 0.1 nm and the pH [1, 19] was 3.5. The pH ([1]; 23.52 mmol/L α-T3DMG, TCA molar ratio 0.9) was 3.9, the PDI ([1]; 23.52 mmol/L α-T3DMG, TCA molar ratio 0.9, ambiguous data (footnote a)) was 0.286 ± 0.231 ^a and the Z-Average ([1]; 23.52 mmol/L α-T3DMG, TCA molar ratio 0.9, ambiguous data due to precipitation (footnote b)) was 4.2 ± 0.4 ^b nm. For the same molecule, the pH ([1]; 23.52 mmol/L α-T3DMG, TCA molar ratio 1) was 3.9, the PDI ([1]; 23.52 mmol/L α-T3DMG, TCA molar ratio 1, ambiguous data (footnote a)) was 0.250 ± 0.179 ^a and the PDI [1, 20] was 0.190 ± 0.045. For the same molecule, the Z-Average [1, 20] was 9.2 ± 6.1 nm, the pH [1, 20] was 4.4 and the PDI [1, 21] was 0.219 ± 0.051. The Z-Average [1, 21] was 22.4 ± 15.1 nm, the pH [1, 21] was 4.8 and the PDI [1, 22] was 0.217 ± 0.005. For the same molecule, the Z-Average [1, 22] was 23.7 ± 12.2 nm, the pH [1, 22] was 4.8 and the “plasma levels of α-T3DMG (ester form) relative to α-T3” value ([10]; gastrostomy of α-T3DMG with TCA) was 4–10%.
`CC(C)=CCC/C(C)=C/CC/C(C)=C/CC[C@]1(C)CCc2c(C)c(OC(=O)CCC(=O)O)c(C)c(C)c2O1` [α-T3Suc, 2R-α-Tocotrienyl acid succinate] showed a Km [6] of 61.6 µM, a Vmax [6] of 7.426e-08 mol/L/min and a Km [9] of 1290 µM. For the same molecule, the Vmax [9] was 1.033e-07 mol/L/min.
In the case of `CNCC(=O)Oc1c(C)c(C)c2c(c1C)CC[C@@](C)(CC/C=C(\C)CC/C=C(\C)CCC=C(C)C)O2` [α-T3MG, 2R-α-Tocotrienyl N-methylglycinate], the solubility at 3 h [2] is reported as greater than 50000 µM, the “hydrolysis in the presence of eserine” value [3] is reported as “completely inhibited” and the Km [6] is reported as 176 µM. It also gave a Vmax [6] of 2.051e-06 mol/L/min, a Km [9] of 1460 µM and a Vmax [9] of 5.573e-07 mol/L/min.
For `CC(C)=CCC/C(C)=C/CC/C(C)=C/CC[C@]1(C)CCc2c(C)c(O)c(C)c(C)c2O1` [α-T3, 2R-α-Tocotrienol], the “plasma α-T3 levels after postprandial (TCA 1:2) administration of α-T3 compared with fasting (TCA 1:1) administration of α-T3DMG” value ([10]; gastrostomy, Supplementary Figure S2) was “similar”.
`CNCC(=O)Oc1c(C)c(C)c2c(c1C)CC[C@@](C)(CC/C=C(\C)CC/C=C(\C)CCC=C(C)C)O2` (as salt: hydrochloride) [α-T3MG, 2R-α-Tocotrienyl N-methylglycinate] showed a melting point of 170 to 173 °C.
